For assay [1], the system named is human lung cancer strain NCI-H441. The class given is cell-based. In a few lines: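 Proliferation was scored by […] measured after the reagent was added to cultures kept at 37°C in 5% carbon dioxide.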
Assay [2] concerns the target GDP-bound NRAS wild-type protein (Homo sapiens, UniProt P01111). Nature of the assay: Binding to NRAS by surface plasmon resonance (SPR), KD and KD ratio to KRAS. As to conditions: ratio of KD value for GDP-bound NRAS wild-type protein to KD value for KRAS (SPR). In a few lines: (§1)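 Compound binding is evaluated by SPR single-cycle kinetics, with concentrations added intermittently from low to high for 75 s each. Target surfaces carry GDP-loaded biotinylated Avi-RAS at about 100–300 RU, regenerated after each cycle; temperature 30°C. A 1:1 binding model gives KD.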

Assay [3] addresses GDP-bound KRAS wild-type protein (Homo sapiens, UniProt P01116). Nature of the assay: Binding to KRAS by surface plasmon resonance (SPR), dissociation constant KD. To be noted: Single Cycle Kinetics, 1:1 binding model. In a few lines: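 Running buffer contained 10 µM GDP and 10 mM MgCl2 to keep RAS in the GDP state, with 4% DMSO at pH 7.4. Compounds were flowed at 100 µL/min in 75 s steps of rising concentration over captured biotin-Avi RAS at 30°C. Sensorgrams were fitted 1:1 for KD.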
A general note: SPR reads the build-up and loss of mass on a sensor chip optically.

For another assay, the target named is HRAS wild-type protein (Homo sapiens, UniProt P01112). Nature of the assay: Binding to HRAS by surface plasmon resonance (SPR), KD and KD ratio to KRAS. To be noted: ratio of KD value for HRAS wild-type protein to KD value for KRAS (SPR). In a few lines:
as §1

The source of these data is patent EP4603105A1, “PHARMACEUTICAL COMPOSITION CONTAINING CYCLIC COMPOUND HAVING SELECTIVE KRAS INHIBITORY EFFECT AGAINST HRAS AND NRAS” (CHUGAI SEIYAKU KABUSHIKI KAISHA, priority 2022, dated 2024).

HRAS wild-type protein, sequence (P01112 whole entry): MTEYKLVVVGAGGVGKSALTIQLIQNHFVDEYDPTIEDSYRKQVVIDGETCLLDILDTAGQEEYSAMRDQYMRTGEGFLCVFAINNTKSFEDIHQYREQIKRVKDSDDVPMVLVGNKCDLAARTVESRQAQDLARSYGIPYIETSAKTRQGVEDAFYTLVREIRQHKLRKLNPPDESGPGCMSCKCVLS
GDP-bound NRAS wild-type protein, sequence (P01111 whole entry): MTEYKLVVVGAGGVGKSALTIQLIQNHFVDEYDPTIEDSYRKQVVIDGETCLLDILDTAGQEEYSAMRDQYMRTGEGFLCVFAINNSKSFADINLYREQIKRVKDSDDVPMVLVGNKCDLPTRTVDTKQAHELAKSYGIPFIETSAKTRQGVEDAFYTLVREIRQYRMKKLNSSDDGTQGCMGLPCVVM
GDP-bound KRAS wild-type protein, sequence (P01116 1-188 isoform P01116-2): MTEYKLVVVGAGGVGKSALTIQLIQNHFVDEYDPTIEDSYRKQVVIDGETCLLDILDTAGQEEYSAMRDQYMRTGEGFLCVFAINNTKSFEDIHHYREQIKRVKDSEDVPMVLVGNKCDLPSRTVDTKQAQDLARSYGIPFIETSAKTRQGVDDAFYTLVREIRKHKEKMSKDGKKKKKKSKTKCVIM

With `CCCN1C(=O)C[C@@H](C(=O)N(C)C)N(C)C(=O)[C@H](C2CCCC2)N(C)C(=O)C2(CCC2)NC(=O)[C@@H]2C[C@@H](OCC)CN2C(=O)[C@H](CCc2cc(F)c(C(F)(F)F)c(F)c2)NC(=O)CN(C)C(=O)[C@H](Cc2ccc(C(F)(F)F)cc2)N2CC/C=C\C[C@@H](C2=O)N(C)C(=O)CN(C)C(=O)[C@H]([C@@H](C)CC)NC(=O)[C@@H]1CC(C)C` [PP1825], the IC50 (commonly the concentration that gives 50% inhibition) in assay [1] came out at 8 nM. Also, the “NRAS /KRAS” value in assay [2] was “A (a compound having 10 or more and less than 20 is denoted as A)”. Binding in assay [3] was put at a Kd of 0.14 nM. Besides, the “HRAS /KRAS” value at HRAS wild-type protein was “A (a compound having 10 or more and less than 20 is denoted as A)”.
In assay [1], `CCC[C@H]1C(=O)N[C@@H]([C@@H](C)CC)C(=O)N(C)CC(=O)N(C)[C@H]2C/C=C\CCN(C2=O)[C@@H](Cc2ccc(C)cc2)C(=O)N(C)CC(=O)N[C@@H](CCc2ccc(C(F)(F)F)c(OC)c2)C(=O)N2C[C@@H](C)C[C@H]2C(=O)NC2(CCC2)C(=O)N(C)[C@@H](C2CCCC2)C(=O)N(C)[C@H](C(=O)N(C)CC)CC(=O)N1C` [PP1840] displayed an IC50 of 26.8 nM. Further, the “NRAS /KRAS” value in assay [2] is “A (a compound having 10 or more and less than 20 is denoted as A)”. Besides, the Kd (usually the constant that tells how readily two partners part at equilibrium) in assay [3] is 0.12 nM. Further, the “HRAS /KRAS” value at HRAS wild-type protein was “B (a compound having 3 or more and less than 10 is denoted as B)”.
In assay [1], `CC[C@H](C)[C@@H]1NC(=O)[C@H](CC)N(C)C(=O)C[C@@H](C(=O)N(C)C)N(C)C(=O)[C@H](C2CCCC2)N(C)C(=O)C2(CC(C)(C)C2)NC(=O)[C@@H]2C[C@@H](C)CN2C(=O)[C@H](CCc2ccc(C(F)(F)F)c(Cl)c2)NC(=O)CN(C)C(=O)[C@H](Cc2ccc(C)cc2)N2CC/C=C\C[C@@H](C2=O)N(C)C(=O)CN(C)C1=O` [PP1846] displayed an IC50 of 9.8 nM. Further, the “NRAS /KRAS” value in assay [2] is “A (a compound having 10 or more and less than 20 is denoted as A)”. The compound further displayed a Kd in assay [3] of 0.1 nM. For the same compound, the “HRAS /KRAS” value at HRAS wild-type protein is “B (a compound having 3 or more and less than 10 is denoted as B)”.
Consider `CC[C@H](C)[C@@H]1NC(=O)[C@H](CC(C)C)N(C)C(=O)C[C@@H](C(=O)N(CC)CC)N(C)C(=O)[C@H](C2CCCC2)N(C)C(=O)C2(CCC2)NC(=O)[C@@H]2C[C@@H](C)CN2C(=O)[C@H](CCc2ccc(C(F)(F)F)c(OC)c2)NC(=O)CN(C)C(=O)[C@H](Cc2ccc(C)cc2)N2CC/C=C\C[C@@H](C2=O)N(C)C(=O)CN(C)C1=O` [PP1849], for which, in assay [1], the IC50 stood at 37.1 nM. Besides, the “NRAS /KRAS” value in assay [2] was “A (a compound having 10 or more and less than 20 is denoted as A)”. The same compound came in with a Kd in assay [3] of 0.38 nM. In addition, the “HRAS /KRAS” value at HRAS wild-type protein was “A (a compound having 10 or more and less than 20 is denoted as A)”.
Compound `CCO[C@@H]1C[C@H]2C(=O)NC3(CCC3)C(=O)N(C)[C@@H](C3CCCC3)C(=O)N(C)[C@H](C(=O)N(CC)CC)CC(=O)N(C)[C@@H](CC(C)C)C(=O)N[C@@H]([C@@H](C)CC)C(=O)N(C)CC(=O)N(C)[C@H]3C/C=C\CCN(C3=O)[C@@H](Cc3ccc(C)cc3)C(=O)N(C)CC(=O)N[C@@H](CCc3ccc(C(F)(F)F)c(OC)c3)C(=O)N2C1` [PP1851] gave an IC50 in assay [1] of 165 nM. The “NRAS /KRAS” value in assay [2] is “A (a compound having 10 or more and less than 20 is denoted as A)”. In addition, the Kd in assay [3] was 1.8 nM. In addition, at HRAS wild-type protein, the “HRAS /KRAS” value was “A (a compound having 10 or more and less than 20 is denoted as A)”.
Compound `CC[C@H](C)[C@@H]1NC(=O)[C@H](CC(C)C)N(C)C(=O)C[C@@H](C(=O)N(C)C)N(C)C(=O)[C@H](C2CCCC2)N(C)C(=O)C2(CCC2)NC(=O)[C@@H]2C[C@H](C)CN2C(=O)[C@H](CCc2ccc(C(F)(F)F)c(Cl)c2)NC(=O)CN(C)C(=O)[C@H](Cc2ccc(C)cc2)N2CC/C=C\C[C@@H](C2=O)N(C)C(=O)CN(C)C1=O` [PP1852] yielded an IC50 in assay [1] of 6 nM. Besides, in assay [2], the “NRAS /KRAS” value is “A (a compound having 10 or more and less than 20 is denoted as A)”. The compound further displayed a Kd in assay [3] of 0.071 nM. Further, the “HRAS /KRAS” value on HRAS wild-type protein was “B (a compound having 3 or more and less than 10 is denoted as B)”.
For the compound `CCC[C@H]1C(=O)N[C@@H]([C@@H](C)CC)C(=O)N(C)CC(=O)N(C)[C@H]2C/C=C\CCN(C2=O)[C@@H](Cc2ccc(C)cc2)C(=O)N(C)CC(=O)N[C@@H](CCc2ccc(C(F)(F)F)c(OC)c2)C(=O)N2C[C@@H](C)C[C@H]2C(=O)NC2(CCC2)C(=O)N(C)[C@@H](C2CCCC2)C(=O)N(C)[C@H](C(=O)N(C)C)CC(=O)N1C` [PP1857], half-maximal inhibition in assay [1] (IC50) required 5 nM. In addition, the “NRAS /KRAS” value in assay [2] was “A (a compound having 10 or more and less than 20 is denoted as A)”. Further, in assay [3], the Kd amounted to 0.091 nM. The “HRAS /KRAS” value on HRAS wild-type protein is “B (a compound having 3 or more and less than 10 is denoted as B)”.
`CCC[C@H]1C(=O)N[C@@H]([C@@H](C)CC)C(=O)N(C)CC(=O)N(C)[C@H]2C/C=C\CCN(C2=O)[C@@H](Cc2ccc(C)cc2)C(=O)N(C)CC(=O)N[C@@H](CCc2ccc(C(F)(F)F)c(OC)c2)C(=O)N2C[C@H](C)C[C@H]2C(=O)NC2(CCC2)C(=O)N(C)[C@@H](C2CCCC2)C(=O)N(C)[C@H](C(=O)N(C)C)CC(=O)N1C` [PP1859] returned an IC50 in assay [1] of 28.8 nM. The “NRAS /KRAS” value in assay [2] is “A (a compound having 10 or more and less than 20 is denoted as A)”. In addition, the affinity in assay [3], expressed as Kd, was 0.14 nM. At HRAS wild-type protein, the “HRAS /KRAS” value was “A (a compound having 10 or more and less than 20 is denoted as A)”.
In assay [1], `CCC[C@H]1C(=O)N[C@@H]([C@@H](C)CC)C(=O)N(C)CC(=O)N(C)[C@H]2C/C=C\CCN(C2=O)[C@@H](Cc2ccc(C)cc2)C(=O)N(C)CC(=O)N[C@@H](CCc2cc(F)c(C(F)(F)F)c(F)c2)C(=O)N2C[C@@H](C)C[C@H]2C(=O)NC2(CCC2)C(=O)N(C)[C@@H](C2CCCC2)C(=O)N(C)[C@H](C(=O)N(C)CC)CC(=O)N1C` [PP1860] gave an IC50 of 10.3 nM. In addition, the “NRAS /KRAS” value in assay [2] was “A (a compound having 10 or more and less than 20 is denoted as A)”. In assay [3], binding was put at a Kd of 0.11 nM. Also, the “HRAS /KRAS” value on HRAS wild-type protein is “A (a compound having 10 or more and less than 20 is denoted as A)”.
In assay [1], `CC[C@H](C)[C@@H]1NC(=O)[C@H](CC2CC2)N(C)C(=O)C[C@@H](C(=O)N(C)C)N(C)C(=O)[C@H](C2CCCC2)N(C)C(=O)C2(CCC2)NC(=O)[C@@H]2C[C@H](C)CN2C(=O)[C@H](CCc2ccc(C(F)(F)F)c(OC)c2)NC(=O)CN(C)C(=O)[C@H](Cc2ccc(C)cc2)N2CC/C=C\C[C@@H](C2=O)N(C)C(=O)CN(C)C1=O` [PP1861] returned an IC50 of 25.7 nM. The “NRAS /KRAS” value in assay [2] was “A (a compound having 10 or more and less than 20 is denoted as A)”. This compound also came in with a Kd in assay [3] of 0.091 nM. Besides, at HRAS wild-type protein, the “HRAS /KRAS” value is “B (a compound having 3 or more and less than 10 is denoted as B)”.
In assay [1], `CCC[C@H]1C(=O)N[C@@H]([C@@H](C)CC)C(=O)N(C)CC(=O)N(C)[C@H]2C/C=C\CCN(C2=O)[C@@H](Cc2ccc(C)cc2)C(=O)N(C)CC(=O)N[C@@H](CCc2cc(F)c(C(F)(F)F)c(F)c2)C(=O)N2C[C@H](C)C[C@H]2C(=O)NC2(CCC2)C(=O)N(C)[C@@H](C2CCCC2)C(=O)N(C)[C@H](C(=O)N(C)CC)CC(=O)N1C` [PP1862] displayed a half-inhibitory concentration (IC50) of 22.2 nM. In assay [2], the “NRAS /KRAS” value was “A (a compound having 10 or more and less than 20 is denoted as A)”. The compound also had a Kd in assay [3] of 0.12 nM. Moreover, the “HRAS /KRAS” value on HRAS wild-type protein was “A (a compound having 10 or more and less than 20 is denoted as A)”.
For `CC[C@H](C)[C@@H]1NC(=O)[C@H](CC(C)C)N(C)C(=O)C[C@@H](C(=O)N(C)C)N(C)C(=O)[C@H](C2CCCC2)N(C)C(=O)C2(CCC2)NC(=O)[C@@H]2C[C@H](C)CN2C(=O)[C@H](CCc2ccc(C(F)(F)F)c(OC)c2)NC(=O)CN(C)C(=O)[C@H](Cc2ccc(C)cc2)N2CC/C=C\C[C@@H](C2=O)N(C)C(=O)CN(C)C1=O` [PP1865], the IC50 in assay [1] was determined as 36 nM. The “NRAS /KRAS” value in assay [2] is “A (a compound having 10 or more and less than 20 is denoted as A)”. Also, in assay [3], the Kd amounted to 0.083 nM. The “HRAS /KRAS” value at HRAS wild-type protein is “B (a compound having 3 or more and less than 10 is denoted as B)”.
Take `CCO[C@@H]1C[C@H]2C(=O)NC3(CCC3)C(=O)N(C)[C@@H](C3CCCC3)C(=O)N(C)[C@H](C(=O)N(CC)CC)CC(=O)N(C)[C@@H](CC(C)C)C(=O)N[C@@H]([C@@H](C)CC)C(=O)N(C)CC(=O)N(C)[C@H]3C/C=C\CCN(C3=O)[C@@H](Cc3ccc(C)cc3)C(=O)N(C)CC(=O)N[C@@H](CCc3ccc(C(F)(F)F)c(OC)c3)C(=O)N2C1` [PP1887]: the IC50 in assay [1] was determined as 19.2 nM. Further, the “NRAS /KRAS” value in assay [2] is “A (a compound having 10 or more and less than 20 is denoted as A)”. The compound also came in with a Kd in assay [3] of 0.3 nM. The “HRAS /KRAS” value on HRAS wild-type protein is “B (a compound having 3 or more and less than 10 is denoted as B)”.
The compound `CCC[C@H]1C(=O)N[C@@H]([C@@H](C)CC)C(=O)N(C)CC(=O)N(C)[C@H]2C/C=C\CCN(C2=O)[C@@H](Cc2ccc(C)cc2)C(=O)N(C)CC(=O)N[C@@H](CCc2ccc(C(F)(F)F)c(OC)c2)C(=O)N2C[C@@H](C)C[C@H]2C(=O)NC2(CC(C)(C)C2)C(=O)N(C)[C@@H](C2CCCC2)C(=O)N(C)[C@H](C(=O)N(C)C)CC(=O)N1C` [PP1888] displayed an IC50 in assay [1] of 3.5 nM. Moreover, in assay [2], the “NRAS /KRAS” value was “A (a compound having 10 or more and less than 20 is denoted as A)”. Moreover, the Kd in assay [3] was determined as 0.074 nM. Further, the “HRAS /KRAS” value at HRAS wild-type protein is “B (a compound having 3 or more and less than 10 is denoted as B)”.
